The text below walks through data of ChEMBL document CHEMBL1136032, “Remarkable influence of the aromatic substructure in 9-methoxystrobilurin derivatives on their antifungal activity” (Bioorg Med Chem Lett, 2002).

The subject of assay [1] is Penicillium citrinum. The experiment in a line: Compound was tested for the antifungal activity against Penicillium citrinum (R-3703) at a concentration of 1 ug/disk; zone of inhibition was measured after 48 hr incubation. Type of assay: functional.
The subject of assay [2] is Aspergillus fumigatus. The experiment in a line: Compound was tested for the antifungal activity against Aspergillus fumigatus (R-1301) at a concentration of 10 ug/disk; zone of inhibition was measured after 48 hr incubation. Type of assay: functional.
Assay [3] deals with Saccharomyces cerevisiae. The experiment in a line: Compound was tested for the antifungal activity against Saccharomyces cerevisiae (IAM4861) at a dose of 1 ug/disk; the diameter of each inhibition zone was measured after 48 hr incubation. Type of assay: functional.
In assay [4] the test system is Saccharomyces cerevisiae. The experiment in a line: Compound was tested for the antifungal activity against Saccharomyces cerevisiae (IAM4861) at a concentration of 0.1 ug/disk; zone of inhibition was measured after 48 hr incubation. Type of assay: functional.
Assay [5] deals with MRC5. The experiment in a line: Cytotoxicity against human diploid embryotic cell line (MRC-5). As to conditions: Homo sapiens, MRC5. Type of assay: functional, cell-based.
Assay [6] deals with Fusarium solani. The experiment in a line: Compound was tested for the antifungal activity against Fusarium solani (R-2800) at a concentration of 0.1 ug/disk; zone of inhibition was measured after 48 hr incubation; NE denotes not effective. Type of assay: functional, organism-based.
Assay [7] relates to Saccharomyces cerevisiae. The experiment in a line: Compound was tested for the antifungal activity against Saccharomyces cerevisiae (IAM4861) at a concentration of 10 ug/disk; zone of inhibition was measured after 48 hr incubation. Type of assay: functional.
For assay [8], the system named is Fusarium solani. The experiment in a line: Compound was tested for the antifungal activity against Fusarium solani (R-2800) at a concentration of 1 ug/disk; zone of inhibition was measured after 48 hr incubation; NE denotes not effective. Type of assay: functional, organism-based.
The subject of assay [9] is Aspergillus fumigatus. The experiment in a line: Compound was tested for the antifungal activity against Aspergillus fumigatus (R-1301) at a concentration of 1 ug/disk; zone of inhibition was measured after 48 hr incubation. Type of assay: functional.
Assay [10] concerns Penicillium citrinum. The experiment in a line: Compound was tested for the antifungal activity against Penicillium citrinum (R-3703) at a concentration of 0.1 ug/disk; zone of inhibition was measured after 48 hr incubation; +/- denotes slightly effective. Type of assay: functional, organism-based.
For assay [11], the system named is Candida albicans. The experiment in a line: Compound was tested for the antifungal activity against Candida albicans (IFO1594) at a concentration of 0.1 ug/disk; zone of inhibition was measured after 48 h incubation; NE denotes not effective. Type of assay: functional, organism-based.
Assay [12] deals with Fusarium solani. The experiment in a line: Compound was tested for the antifungal activity against Fusarium solani (R-2800) at a concentration of 10 ug/disk; zone of inhibition was measured after 48 hr incubation; NE denotes not effective. Type of assay: functional, organism-based.
Assay [13] concerns Candida albicans. The experiment in a line: Compound was tested for the antifungal activity against Candida albicans (IFO1594) at a concentration of 1 ug/disk; zone of inhibition was measured after 48 hr incubation. Type of assay: functional.
The test system of assay [14] is Candida albicans. The experiment in a line: Compound was tested for the antifungal activity against Candida albicans (IFO1594) at a concentration of 10 ug/disk; zone of inhibition was measured after 48 hr incubation. Type of assay: functional.
Assay [15] deals with Aspergillus fumigatus. The experiment in a line: Compound was tested for the antifungal activity against Aspergillus fumigatus (R-1301) at a concentration of 0.1 ug/disk; zone of inhibition was measured after 48 hr incubation; NE denotes not effective. Type of assay: functional, organism-based.
The subject of assay [16] is Penicillium citrinum. The experiment in a line: Compound was tested for the antifungal activity against Penicillium citrinum (R-3703) at a concentration of 10 ug/disk; zone of inhibition was measured after 48 h incubation. Type of assay: functional.

pIC50: −log10 of the molar value. Activity calls are given as the source filed them. The rule behind the calls is not given here. Bounds are passed on as bounds.

What is called pIC50 is −log10 of the IC50, conventionally taken in molar units. A higher pIC50 goes with a low IC50. On to `CO\C=C(C(=O)OC)/C(C)=C(\C=C\c1cccc2ccccc12)OC`, for which the Diameter of inhibition zone in assay [1] turned out to be 12 mm; in assay [2], 14 mm; in [3] it was 18 mm; in assay [4], 5 mm; in assay [7], 22 mm; in [9], 10 mm. Moreover, the “Diameter of inhibition zone” value is “Weak activity” in [10], 5 mm in [13], 15 mm in assay [14] and 17 mm in [16]. The molecule further gave a pIC50 in assay [5] of less than 4.00. For the same molecule, the “Diameter of inhibition zone” value in [6], in [8], in assay [11], in assay [12] and in assay [15] was “inactive” throughout.
